Publication PMC8443696, “Structural determinants and regulation of spontaneous activity in GABAA receptors” (Nature Communications, 2021)
“And” between values parts separate entries of the source, which are not always exact repeats. Equal values may be shown once.

What was measured:
Assay type in all cases: cell-based, mouse
α4β2δ receptor = test system: T1, α4β2δ receptor; assay: Quantification of spontaneous activity (Ispont) in HEK cells, whole-cell patch clamp; conditions: AP 100 nM (Fig. 6b), listed as AP
T1 construct: expressed in transfected cells; host or cells: HEK 293
Description: (§1) All components were obtained from Life Technologies.
(§2) Currents were acquired with Clampex ver.
(§3) Cells were voltage clamped at −40 mV.
(§4) For assessment of the efficacy of allosteric modulators on spontaneous activity, compounds were briefly applied (3–5 s) to achieve steady-state currents (IMod). […] The IMod was summed with IPTX (or subtracted for inhibitory modulators) and the Ispont calculated, as described by Eq. (2):2 Ispont(%)=[(IPTX+IMod)/(IPTX+IMax)]×100……………………………………

α4β3δ receptors = target: T2, α4β3δ receptors (UniProt P18506+P63080+Q9D6F4); conditions: THIP 3 mM
T2 construct: expressed in transfected cells; host or cells: HEK 293
T2 sequence (Q9D6F4 36-552): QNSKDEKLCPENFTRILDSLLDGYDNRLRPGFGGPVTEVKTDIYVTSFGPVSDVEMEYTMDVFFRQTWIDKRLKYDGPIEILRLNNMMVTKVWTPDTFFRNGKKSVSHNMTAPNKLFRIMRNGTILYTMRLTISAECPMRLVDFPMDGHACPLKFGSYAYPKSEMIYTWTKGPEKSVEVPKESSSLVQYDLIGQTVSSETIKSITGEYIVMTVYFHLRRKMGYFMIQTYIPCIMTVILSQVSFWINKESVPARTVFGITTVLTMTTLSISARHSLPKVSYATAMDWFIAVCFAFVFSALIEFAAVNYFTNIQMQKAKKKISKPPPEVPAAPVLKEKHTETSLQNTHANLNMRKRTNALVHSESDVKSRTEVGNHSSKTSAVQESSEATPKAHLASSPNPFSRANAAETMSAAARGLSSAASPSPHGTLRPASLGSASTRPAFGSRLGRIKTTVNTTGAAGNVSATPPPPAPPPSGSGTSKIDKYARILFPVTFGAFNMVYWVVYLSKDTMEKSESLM
T2 sequence (P63080 26-473): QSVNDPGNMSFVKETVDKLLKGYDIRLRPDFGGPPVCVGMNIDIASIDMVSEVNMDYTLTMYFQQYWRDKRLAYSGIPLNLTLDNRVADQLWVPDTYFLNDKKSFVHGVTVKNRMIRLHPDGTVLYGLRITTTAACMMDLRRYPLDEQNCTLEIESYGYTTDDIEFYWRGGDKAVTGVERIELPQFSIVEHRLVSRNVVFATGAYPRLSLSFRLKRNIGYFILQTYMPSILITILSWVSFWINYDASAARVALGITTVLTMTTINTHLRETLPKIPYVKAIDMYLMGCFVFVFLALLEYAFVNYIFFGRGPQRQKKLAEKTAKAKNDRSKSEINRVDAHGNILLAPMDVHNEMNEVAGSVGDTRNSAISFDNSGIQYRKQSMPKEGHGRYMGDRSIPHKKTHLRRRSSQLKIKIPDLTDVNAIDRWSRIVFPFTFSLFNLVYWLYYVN
T2 sequence (P18506 25-449): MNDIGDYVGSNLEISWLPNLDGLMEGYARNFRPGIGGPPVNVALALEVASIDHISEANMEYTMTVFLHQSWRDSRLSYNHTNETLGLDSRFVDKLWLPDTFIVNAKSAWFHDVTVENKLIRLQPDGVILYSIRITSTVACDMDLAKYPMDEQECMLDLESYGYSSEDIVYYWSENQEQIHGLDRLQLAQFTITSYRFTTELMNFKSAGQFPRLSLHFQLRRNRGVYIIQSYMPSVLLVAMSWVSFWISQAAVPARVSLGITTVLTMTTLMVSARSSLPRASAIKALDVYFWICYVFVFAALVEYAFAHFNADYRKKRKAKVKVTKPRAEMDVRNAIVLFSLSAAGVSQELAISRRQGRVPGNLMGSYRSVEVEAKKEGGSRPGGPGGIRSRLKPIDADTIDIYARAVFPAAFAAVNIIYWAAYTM
Description: as §1, §2, §3, §4

α1β3γ2L receptors = test system: T3, α1β3γ2L receptors; assay: Quantification of spontaneous activity (Ispont) in HEK cells, whole-cell patch clamp; conditions: α1β3γ2L THIP (Fig. 1d); THIP 3 mM, PTX 100 µM; individual cells
T3 construct: expressed in transfected cells; host or cells: HEK 293
Description: as §1, §2, §3, §4

Compound	Ispont in the presence of modulator (α4β2δ receptor)	Ispont, IMax from THIP (α4β3δ receptors; α4β3δ THIP (Fig. 1d), PTX 100 µM, individual cells)	IMax compared to GABA (α4β3δ receptors; α4β3δ)	Ispont, IMax from THIP (α1β3γ2L receptors)
CC(=O)[C@H]1CC[C@H]2[C@@H]3CC[C@H]4C[C@H](O)CC[C@]4(C)[C@H]3CC[C@]12C [allopregnanolone]	0% and 0.09895% and 0.3946%			
Oc1noc2c1CCNC2 [THIP, 4,5,6,7-tetrahydroisoxazolo[5,4-c]pyridin-3-ol]		3.988% and 7.572% and 10.0793% and 6.822% and 17.8571% and 28.6432% and 15.8524%	larger	1.055% and 0.4509% and 8.753% and 3.449% and 0.8828% and 1.773%
